We go through 4 compounds from patent publication US12485089B1, “Adhering lozenge with high amount of sparsely soluble active ingredient” (Quest Products, LLC, priority 2025, dated 2025).

The series in a line: Time to complete dissolution of compressed tablets of bulking agents/compression binders in water. In kind it is physicochemical. As to conditions: 750 mg tablet, 12 mm diameter, pressed at 32 kN, 1.5 L water in 2 L beaker, room temperature (69° F.). The source says: To compare the speed of dissolution of any ingredients acting as a binder and/or bulking agent to the speed of dissolution of isomalt, a tablet can be formed of each and the time of dissolution for each can be measured. As used herein, the term “rate of dissolution” when comparing one or more binder and bulking agent ingredients to isomalt refers to the following procedure. The tablets should have the same diameter, shape, and weight and should be prepared by pressing with the same compression force (e.g., 32 kN) using a tablet press. Two equal beakers (e.g., 2 L) each containing an equal amount of distilled water (e.g., 1.5 L) and each at the same room temperature (i.e., at 69° F.) and atmospheric pressure are prepared. One tablet containing isomalt (commercially available FCC or USP grade isomalt particles) is placed in one of the beakers of water. The other tablet formed of the test binder and/or bulking agent are placed in the other of the beakers of water. The two beakers are then visually observed to determine which of the tablets dissolves completely first.
To identify suitable bulking agents and compression binders that dissolve quickly enough to allow suitable release of the preferred amount of antacid particles having low solubility in saliva, tablets of equal diameter (12 mm) and a weight of 750 mg±4 mg were made with commercially available particles of the bulking agents and/or compression binders listed in the table below, each compressed using a tablet press by placing the ingredients in a die and pressing with an equal pressure of 32 kN±3 kN to form the tablets. The tablets were simultaneously placed in equal size beakers (2 L) each containing an equal amount of water (1.5 L±15 mL) at room temperature (69° F.) and the time to complete dissolution was measured for each tablet. The dissolution times are shown below.

For `OC[C@@H](O)[C@@H](O[C@H]1O[C@H](CO)[C@@H](O)[C@H](O)[C@H]1O)[C@H](O)[C@@H](O)CO` [Maltitol], the “Dissolution time” value worked out at 29 min.

For `OC[C@@H](O)[C@@H](O)[C@H](O)[C@H](O)CO` [Mannitol], the “Dissolution time” value was determined as 50 min.

For the compound `OC[C@@H](O)[C@@H](O)[C@H](O)[C@@H](O)CO` [Sorbitol], the “Dissolution time” value was 20 min.

For the compound Isomalt, the “Dissolution time” value worked out at 38 min.
